In patent US20060079463A1 (priority 2003, published 2006):

Assays:
Mouse Hepatoma H22 = test: Kunming mouse Hepatoma H22 model, in vivo tumor growth; conditions: for Compared to Glucose group Inhibition (%) / Compared to Saline group Inhibition (%) / Tumor size Mean ± SD: Table 6.2; for Compared to Glucose group Inhibition (%) / Compared to Saline group Inhibition (%) / Tumor size Mean ± SD / Tumor Size (Mean ± SD, g) / Tumor Inhibition (%): 10 days; for Tumor Size (Mean ± SD, g) / Tumor Inhibition (%): Table 2.2; for Tumor Inhibition (%): vs saline
Description: (§1) (2) Kunming mouse Hepatoma H22 model: Mouse Hepatoma H22 ascites tumor cells, 1×10E6 cells in 0.2 ml saline per mouse, were injected subcutaneously to the right axillary space of 5- to 6-week old Kunming mice.
(§2) C. […] The amount of either tested drug for one kg mouse was prepared as 10 ml solution, and 10 micro-liters per gram of mouse were injected intraperitoneally, once or twice daily, for 10 consecutive days for the Kunming mice with Sarcoma S-180 and Hepatoma H22, and for 15 consecutive days for C57BL/6 mice with melanoma B16. 50% glucose, 30 ml/kg, was given by gavage to selected groups of mice receiving the tested drug 60 to 90 minutes before each injection. One group of mice received saline only while another group of mice received the glucose treatment without the tested drug; these groups served as the saline-only control and the glucose-only control, respectively. A third group of mice received intraperitoneal injection of cyclophosphamide (CTX), or 5-Fluorouracil (5FU), 25 to 50 mg/kg body weight, was included in some experiments as positive control. At the end of the experiment, mouse body weight was taken, and the Sarcoma S-180, or Hepatoma H22 tumors were dissected and weighted, while the tumor size of melanoma B16 was measured using a caliper. Melanoma B16 tumor volume was calculated using the following equation: Tumor volume=S*S*L*0.5, where S is the short diameter, and L stands for long diameter of the tumor according to Beck M T et al. (Cancer Research 63:3598, 2003).

Mouse Sarcoma S-180 = test: Kunming mouse Sarcoma S-180 model, in vivo tumor growth; conditions: for Tumor Size (Mean ± SD, g) / Tumor Inhibition (%) / Tumor Weight (Mean ± SD, g) / Tumor Inhibition Rate (%): 10 days; for Tumor Weight (Mean ± SD, g) / Tumor Inhibition Rate (%): Table 3.2
Description: (§3) (1) Kunming mouse Sarcoma S-180 model: Mouse Sarcoma S-180 ascites tumor cells, 1×10E6 cells resuspended in 0.2 ml saline per mouse, were injected subcutaneously to the right axillary space of 5- to 6-week old Kunming mice.
as §2

Mouse melanoma B16 = test: C57BL/6 mouse melanoma B16 model, tumor growth; assay type: in vivo; conditions: for Tumor Size (Mean ± SD, mm3) / Tumor Inhibition (%): Table 4.2, 1 dose/day, 15 days; for Tumor Inhibition (%): vs saline
Description: (§4) (3) C57BL/6 mouse melanoma B16 model: Mouse melanoma B16 cells, 1×10E7 cells in 0.2 ml of saline per mouse, were injected subcutaneously into right axillary space of 6 to 8 week old C57BL/6 mice. The mice were randomly divided into groups after tumor cell inoculation.
as §2

[1] = Body weight of mice bearing Sarcoma S-180; conditions: CTX 30 mg/kg i.p., 1 dose/day, 10 days
Description: as §3, §2

[2] = Body weight of mice bearing Hepatoma H22; conditions: Table 2.1; CTX 25 mg/kg i.p., 1 dose/day, 10 days
Description: as §1
as §2, with “A third group of mice received intraperitoneal injection of cyclophosphamide (CTX), or 5-Fluorouracil (5FU), 25 to 50 mg/kg body weight, was included in some experiments as positive control.” left out

[3] = Body weight of mice with B16 melanoma; conditions: Table 4.1; CTX 50 mg/kg i.p., 1 dose/day, 15 days
Description: as §4
as §2, with “A third group of mice received intraperitoneal injection of cyclophosphamide (CTX), or 5-Fluorouracil (5FU), 25 to 50 mg/kg body weight, was included in some experiments as positive control.” left out

[4] = human, in vivo; cited from earlier work
[5] = tested on: human melanoma xenographts; conditions: a dose of MIBG under hyperglycemic conditions, SCID mice; cited from earlier work
[6] = Toxicity observation during URIN and MAIN administration in tumor-bearing mice; assay type: in vivo; conditions: i.p., up to 4480 mg/kg once or twice daily
Description: as §2

[7] = cited from earlier work
[8] = MAIN H 3750 mg/kg i.p., 2 doses/day, glucose pre-treatment
[9] = MAIN L 1500 mg/kg i.p., 2 doses/day, glucose pre-treatment
[10] = MAIN M 2500 mg/kg i.p., 2 doses/day, glucose pre-treatment
[11] = URIN 4480 mg/kg i.p., 2 doses/day, no glucose
[12] = URIN H 4480 mg/kg i.p., glucose pre-treatment
[13] = URIN L 1680 mg/kg i.p., glucose pre-treatment

## O=c1[nH]cc(F)c(=O)[nH]1 [5FU, 5-Fluorouracil]
Mouse Hepatoma H22; 5FU 25 mg/kg i.p., 1 dose/day
  Compared to Glucose group Inhibition (%): 71.4%
  Compared to Saline group Inhibition (%): 77.4%
  Tumor size Mean ± SD: 0.48 ± 0.25 g

## O=P1(N(CCCl)CCCl)NCCCO1 (stereo not shown) [CTX, cyclophosphamide]
Mouse Sarcoma S-180; Table 1.2, CTX 30 mg/kg i.p., 1 dose/day
  Tumor Size (Mean ± SD, g): 0.53 ± 0.14 g
Mouse Sarcoma S-180; Table 1.2, CTX 30 mg/kg i.p., 1 dose/day, vs saline
  Tumor Inhibition (%): 61.3%
Mouse Sarcoma S-180; CTX 30 mg/kg i.p., 1 dose/day
  Tumor Weight (Mean ± SD, g): 0.53 ± 0.22 g
Mouse Sarcoma S-180; CTX 30 mg/kg i.p., 1 dose/day, vs saline
  Tumor Inhibition Rate (%): 73.0%
Mouse Hepatoma H22; CTX 25 mg/kg i.p., 1 dose/day
  Tumor Size (Mean ± SD, g): 1.21 ± 0.37 g
  Tumor Inhibition (%): 48.1%
Mouse melanoma B16; CTX 50 mg/kg i.p.
  Tumor Size (Mean ± SD, mm3): 118 ± 100 mm3
  Tumor Inhibition (%): 97%
[1]; Table 1.1
  Body weight (Mean ± SD, g) End: 23.5 ± 1.7 g
  Body weight (Mean ± SD, g) Start: 21.9 ± 1.1 g
[1]; Table 3.1
  Body weight (Mean ± SD, g) End: 23.0 ± 2.9 g
  Body weight (Mean ± SD, g) Start: 21.4 ± 1.0 g
[2]
  Body weight (Mean ± SD, g) End: 32.6 ± 2.5 g
  Body weight (Mean ± SD, g) Start: 24.6 ± 1.0 g
[3]
  Body weight (Mean ± SD, g) End: 18.6 ± 1.6 g
  Body weight (Mean ± SD, g) Start: 20.3 ± 1.5 g

## C1N2CN3CN1CN(C2)C3.O=C(O)C(O)c1ccccc1 (stereo not shown) [MAIN, methenamine mandelate]
Mouse Sarcoma S-180; Table 5.2, MAIN H 3714 mg/kg i.p., 2 doses/day, glucose pre-treatment
  Tumor Size (Mean ± SD, g): 1.25 ± 0.41 g
Mouse Sarcoma S-180; Table 5.2, MAIN H 3714 mg/kg i.p., 2 doses/day, glucose pre-treatment, vs glucose group
  Tumor Inhibition (%): 45.9%
Mouse Sarcoma S-180; Table 5.2, MAIN L 1485 mg/kg i.p., 2 doses/day, glucose pre-treatment
  Tumor Size (Mean ± SD, g): 2.14 ± 0.60 g
Mouse Sarcoma S-180; Table 5.2, MAIN L 1485 mg/kg i.p., 2 doses/day, glucose pre-treatment, vs glucose group
  Tumor Inhibition (%): 7.4%
Mouse Sarcoma S-180; Table 5.2, MAIN M 2320 mg/kg i.p., 2 doses/day, glucose pre-treatment
  Tumor Size (Mean ± SD, g): 1.85 ± 0.62 g
Mouse Sarcoma S-180; Table 5.2, MAIN M 2320 mg/kg i.p., 2 doses/day, glucose pre-treatment, vs glucose group
  Tumor Inhibition (%): 19.9%
Mouse Hepatoma H22; [8]
  Compared to Glucose group Inhibition (%): 38.7%
  Compared to Saline group Inhibition (%): 51.4%
  Tumor size Mean ± SD: 1.03 ± 0.66 g
Mouse Hepatoma H22; [9]
  Compared to Glucose group Inhibition (%): 6.0%
  Compared to Saline group Inhibition (%): 25.5%
  Tumor size Mean ± SD: 1.58 ± 0.42 g
Mouse Hepatoma H22; [10]
  Compared to Glucose group Inhibition (%): 6.5%
  Compared to Saline group Inhibition (%): 25.5%
  Tumor size Mean ± SD: 1.57 ± 0.74 g
[4]
  Side effects resulting from long term use: negligible

## N=C(N)NCc1cccc(I)c1 [MIBG, m-Iodpbenzylguanidine]
[5]
  Reduction of extracellular pH of tumor: up to 0.59 units

## C1N2CN3CN1CN(C2)C3 [URIN, Methenamine]
Mouse Sarcoma S-180; Table 1.2, URIN 4480 mg/kg i.p., 2 doses/day, no glucose
  Tumor Size (Mean ± SD, g): 1.07 ± 0.31 g
Mouse Sarcoma S-180; Table 1.2, URIN 4480 mg/kg i.p., 2 doses/day, no glucose, vs saline
  Tumor Inhibition (%): 21.9%
Mouse Sarcoma S-180; URIN H 4480 mg/kg i.p., 2 doses/day, glucose pre-treatment
  Tumor Weight (Mean ± SD, g): 1.25 ± 0.41 g
Mouse Sarcoma S-180; URIN H 4480 mg/kg i.p., 2 doses/day, glucose pre-treatment, vs saline
  Tumor Inhibition Rate (%): 36.2%
Mouse Sarcoma S-180; URIN L 1680 mg/kg i.p., 2 doses/day, glucose pre-treatment
  Tumor Weight (Mean ± SD, g): 1.54 ± 0.56 g
Mouse Sarcoma S-180; URIN L 1680 mg/kg i.p., 2 doses/day, glucose pre-treatment, vs saline
  Tumor Inhibition Rate (%): 21.4%
Mouse Sarcoma S-180; URIN M 2800 mg/kg i.p., 2 doses/day, glucose pre-treatment
  Tumor Weight (Mean ± SD, g): 1.57 ± 0.50 g
Mouse Sarcoma S-180; URIN M 2800 mg/kg i.p., 2 doses/day, glucose pre-treatment, vs saline
  Tumor Inhibition Rate (%): 19.9%
Mouse Sarcoma S-180; administration of URIN
  In vivo growth of mouse tumor Sarcoma S-180 (conclusion): significantly inhibited
Mouse Hepatoma H22; [11]
  Tumor Size (Mean ± SD, g): 1.37 ± 0.39 g
  Tumor Inhibition (%): 41.2%
Mouse Hepatoma H22; administration of URIN
  In vivo growth of mouse tumor Hepatoma H22 (conclusion): significantly inhibited
Mouse melanoma B16; [12]
  Tumor Size (Mean ± SD, mm3): 2755 ± 1098 mm3
  Tumor Inhibition (%): 32.1%
Mouse melanoma B16; [13]
  Tumor Size (Mean ± SD, mm3): 3376 ± 1419 mm3
  Tumor Inhibition (%): 16.7%
Mouse melanoma B16; URIN M 2800 mg/kg i.p., glucose pre-treatment
  Tumor Size (Mean ± SD, mm3): 4241 ± 1834 mm3
Mouse melanoma B16; URIN M 2800 mg/kg i.p., glucose pre-treatment, value in bracket = increased rate
  Tumor Inhibition (%): (−14.6%)
Mouse melanoma B16; administration of URIN
  In vivo growth of mouse tumor B16 Melanoma (conclusion): significantly inhibited
[6]
  Death from drug toxicity: No mouse died of URIN toxicity
[7]; pH-neutral medium
  Stability in a pH-neutral medium: very stable
[7]; serum and normal tissue
  Liberation of formaldehyde in serum and normal tissue: does not liberate formaldehyde
